{
  "source": "paper PMC5944028",
  "about": "“Nonclinical and clinical pharmacological characterization of the potent and selective cathepsin K inhibitor MIV-711” (Journal of Translational Medicine, 2018)",
  "origin": "cited, not measured here",
  "key": {"[1]": {"test_system": "urinary CTX-II", "settings": "postmenopausal women with osteoporosis, 12 months; cited from earlier work"}, "[2]": {"settings": "human, weekly dose of 50 mg, cited from earlier work"}},
  "data": [
    {"smiles": "C[C@@H]1CS/C(=N\\NC(=O)C(=O)[C@@H](NC(=O)C2CCCCCC2)C2CCOCC2)N1C", "note": "[ONO-5334, reference compound]", "values": [
      {"measurement": "Reduction of urinary CTX-II", "setting": "[1]", "result": 50, "unit": "%"}
    ]},
    {"smiles": "CC(C)(F)C[C@H](N[C@@H](c1ccc(-c2ccc(S(C)(=O)=O)cc2)cc1)C(F)(F)F)C(=O)NC1(C#N)CC1", "note": "[odanacatib]", "values": [
      {"measurement": "mean plasma AUC0–24h", "setting": "[2]", "result": "6 to 7", "unit": "µM·h"},
      {"measurement": "IC50", "setting": "[2]; read-out: trough plasma IC50", "result": "50 to 60", "unit": "nM"}
    ]}
  ]
}
